Experimental data from PubChem BioAssay (NCI).
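Protocol summary: plate cells (96-well), add compound at 5 concentrations, incubate 48 h, interpolate endpoints linearly. The concentration for full growth arrest is given as TGI.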

How the values were obtained:
Experiment in all cases: growth of human tumour cells (NCI), 48 h
[1] = tested on: EKVX NSCLC
[2] = tested on: HOP-92 NSCLC
[3] = tested on: UACC-257 melanoma
[4] = tested on: KM12 colon
[5] = tested on: ACHN renal
[6] = tested on: OVCAR-3 ovarian
[7] = tested on: SNB-19 CNS
[8] = tested on: TK-10 renal
[9] = tested on: NCI-H460 lung
[10] = tested on: DU-145 prostate
[11] = tested on: OVCAR-4 ovarian
[12] = tested on: OVCAR-5 ovarian
[13] = tested on: T-47D breast
[14] = tested on: CCRF-CEM leukemia
[15] = tested on: SNB-75 CNS
[16] = tested on: NCI/ADR-RES ovarian
[17] = tested on: SK-OV-3 ovarian
[18] = tested on: MDA-MB-231 breast
[19] = tested on: HCT-15 colon
[20] = tested on: SK-MEL-5 melanoma

| Compound | TGI [1] | TGI [2] | TGI [3] | TGI [4] | TGI [5] | TGI [6] | TGI [7] | TGI [8] | TGI [9] | TGI [10] | TGI [11] | TGI [12] | TGI [13] | TGI [14] | TGI [15] | TGI [16] | TGI [17] | TGI [18] | TGI [19] | TGI [20] |
| --- | --- | --- | --- | --- | --- | --- | --- | --- | --- | --- | --- | --- | --- | --- | --- | --- | --- | --- | --- | --- |
| Cc1nc2ccccc2c(=O)n1/N=C/c1ccc(N(C)C)cc1 | > 100 µM | > 100 µM | > 100 µM | > 100 µM | > 100 µM | > 100 µM | > 100 µM | > 100 µM | > 100 µM | > 100 µM | > 100 µM | > 100 µM | > 100 µM | > 100 µM | 43.9 µM | > 100 µM | > 100 µM | > 100 µM | > 100 µM | > 100 µM |
| CC1CC(C(=O)OC2OC(COC3OC(CO)C(OC4OC(C)C(O)C(O)C4O)C(O)C3O)C(O)C(O)C2O)C2CCC3(C)C(=CCC4(C)C3CCC3C(C)(CO)C(O)C(O)CC34C)C2C1C (stereo not given) | > 10 µM | 34.6 µM | > 10 µM | 33.4 µM | > 10 µM | 60.4 µM | 32 µM | > 100 µM | 66.6 µM | > 100 µM | 37.3 µM | 66.7 µM | 35 µM | 52.2 µM | 32.5 µM | > 100 µM | > 100 µM | 34 µM | > 100 µM | 33 µM |
| COc1ccccc1/C=C/c1nc2ccccc2o1 | > 10 µM | > 10 µM | > 10 µM | > 10 µM | > 10 µM | > 10 µM | > 10 µM | > 10 µM | > 10 µM | > 10 µM | > 10 µM | > 10 µM | > 10 µM | > 10 µM | > 10 µM | > 10 µM | > 10 µM | > 10 µM | > 10 µM | > 10 µM |
| COc1ccc(-c2cc(-c3ccccc3)nc3c2CC(=O)Nc2ccccc2-3)cc1OC | > 100 µM | > 100 µM | > 100 µM | > 100 µM | > 100 µM | > 100 µM | > 100 µM | > 100 µM | > 100 µM | > 100 µM | > 100 µM | > 100 µM | > 100 µM | > 100 µM | 2.67 µM | > 100 µM | > 92.6 µM | 6.21 µM | > 100 µM | > 100 µM |
| COc1cc(Nc2nc3ccccc3nc2C(C)C)cc(OC)c1OC | > 100 µM | > 100 µM | > 100 µM | > 100 µM | > 100 µM | > 100 µM | > 100 µM | > 100 µM | > 100 µM | > 100 µM | > 100 µM | > 100 µM | > 100 µM | > 100 µM | > 100 µM | > 100 µM | > 100 µM | > 100 µM | > 100 µM | > 100 µM |
| CC(=O)C1=C(C)N(c2ccccc2)C2(O)C=CC(=O)C3=C(O)c4ccccc4C(=O)C312 (stereo not given) | 49.1 µM | 63.9 µM | 21 µM | 40.3 µM | 31.2 µM | 11.4 µM | 38.6 µM | 46.2 µM | > 100 µM | 28.5 µM | 72.1 µM | 39.3 µM | 76.8 µM | > 100 µM | > 100 µM | 37.5 µM | > 100 µM | 51 µM | > 100 µM | 24.9 µM |
| Cc1[nH]c(=O)nc(N(CCO)/N=C/c2ccc(Cl)cc2)c1C(=O)Nc1ccc(Cl)cc1 | > 100 µM | > 100 µM | > 100 µM | > 100 µM | > 100 µM | > 100 µM | > 100 µM | > 100 µM | > 100 µM | > 100 µM | > 100 µM | > 100 µM | > 100 µM | > 100 µM | > 100 µM | > 100 µM | > 100 µM | > 100 µM | > 100 µM | > 100 µM |
| Cc1cc(C)c2c(=O)cc(-c3ccc4ccccc4c3)[nH]c2n1 | > 100 µM | 78.8 µM | > 59.6 µM | > 52.7 µM | > 100 µM | > 100 µM | > 100 µM | > 100 µM | > 100 µM | > 100 µM | > 100 µM | > 100 µM | > 100 µM | 37.7 µM | > 90.7 µM | > 63.9 µM | > 100 µM | > 100 µM | > 100 µM | 9.42 µM |
| O=C1C=C2CC[C@H]3[C@@H]4CC[C@H](Oc5c6ccccc6nc6ccccc56)[C@H]4CC[C@@H]3[C@H]2CC1 | > 100 µM | 80.3 µM | > 100 µM | > 100 µM | > 100 µM | > 100 µM | > 100 µM | > 100 µM | > 100 µM | > 100 µM | > 100 µM | > 100 µM | > 100 µM | 60.1 µM | 91.8 µM | > 100 µM | > 100 µM | > 100 µM | > 100 µM | > 100 µM |
| C[N+](C)(C)C(C1=CCCC1=O)c1ccccc1 (stereo not given) | > 100 µM | 85.3 µM | 64.4 µM | 49.1 µM | 64.3 µM | > 100 µM | > 100 µM | > 100 µM | 89.8 µM | > 100 µM | > 100 µM | > 100 µM | > 100 µM | > 100 µM | > 100 µM | > 100 µM | > 100 µM | 75.5 µM | 41.5 µM | > 100 µM |
| CC#CCCCC1(C)CCCNC1=S (stereo not given) | > 10 µM | > 10 µM | > 10 µM | > 10 µM | > 10 µM | > 10 µM | > 10 µM | > 10 µM | > 10 µM | > 10 µM | > 10 µM | > 10 µM | > 10 µM | > 10 µM | > 10 µM | > 10 µM | > 10 µM | > 10 µM | > 10 µM | > 10 µM |
| NC(N)=NS(=O)(=O)c1ccc(NC(=O)c2ccc3nc4ccccc4c(N)c3c2)cc1 | > 100 µM | > 100 µM | > 100 µM | > 100 µM | > 100 µM | > 100 µM | > 100 µM | > 100 µM | > 100 µM | > 100 µM | > 100 µM | > 100 µM | > 100 µM | > 100 µM | > 100 µM | > 100 µM | > 100 µM | > 100 µM | > 100 µM | > 100 µM |
| COC(=O)c1ccc(C)cc1CC1Cc2c(C)cccc2C1=O (stereo not given) | 73.5 µM | 46.8 µM | 49 µM | 16.1 µM | > 94.3 µM | 16.1 µM | 89.7 µM | > 54.6 µM | > 78.3 µM | > 81.9 µM | > 91.9 µM | > 100 µM | > 100 µM | 62.2 µM | 20.9 µM | 17.2 µM | 43.2 µM | 8.42 µM | 12.7 µM | 19.7 µM |
| Oc1ccccc1-c1nn2c(CCCCCCCCc3nnc4sc(-c5ccccc5O)nn34)nnc2s1 | > 88.9 µM | > 100 µM | > 100 µM | > 100 µM | > 100 µM | 64.3 µM | > 100 µM | > 100 µM | > 100 µM | > 75.5 µM | > 100 µM | > 76.6 µM | 52.1 µM | 39.3 µM | > 86.1 µM | > 100 µM | 83.8 µM | > 100 µM | > 100 µM | 64.8 µM |
| COc1ccc(N(C(=O)NCCO)c2ccccc2)cc1 | > 100 µM | > 100 µM | > 100 µM | > 100 µM | > 100 µM | > 100 µM | > 100 µM | > 100 µM | > 100 µM | > 100 µM | > 100 µM | > 100 µM | > 100 µM | > 100 µM | > 100 µM | > 100 µM | > 100 µM | > 100 µM | > 100 µM | > 100 µM |
| NC(=S)N/N=C1\CCCCC1C(O)(C(F)(F)Cl)C(F)(F)Cl (stereo not given) | > 10 µM | > 10 µM | > 10 µM | > 10 µM | > 10 µM | > 10 µM | > 10 µM | > 10 µM | > 10 µM | > 10 µM | > 10 µM | > 10 µM | > 10 µM | > 10 µM | > 10 µM | > 10 µM | > 10 µM | > 10 µM | > 10 µM | > 10 µM |
